Source: article PMC11512107, “Structural and biochemical analysis of ligand binding in yeast Niemann–Pick type C1–related protein” (Life Science Alliance, 2024)
Values joined by “and” are separate entries in the source; they are usually repeats but may differ in a detail not shown here. Identical values can stand only once. “Also recorded” adds a separate entry of the source. Each block holds one compound with its values, some of them ahead of it.

Columns and labels:
[1] = biological target: T1, NPC2 (Saccharomyces cerevisiae, UniProt Q12408); test: In vitro liposome crosslinking assay of pac-lipids with NPC2; type: binding
T1 construct: residues 1–173, UniProt: Q12408; thrombin cleavage site (C); deca-histidine tag (C, cleaved yes); made in house; host or cells: Saccharomyces cerevisiae strain DSY-5
T1 sequence (Q12408 22-173): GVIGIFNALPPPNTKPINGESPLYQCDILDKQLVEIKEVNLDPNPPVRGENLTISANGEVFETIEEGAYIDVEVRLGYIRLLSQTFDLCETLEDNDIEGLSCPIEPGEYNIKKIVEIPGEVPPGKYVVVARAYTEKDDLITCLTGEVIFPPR
Experimental: To compare with the interaction profile of the NTD, crosslinking assays were also performed with purified, delipidated NPC2 (Fig S4A and B). […] NPC2 crosslinks well with all tested pac-lipids but, as for the NTD, most strongly with pacChol (+UV/−UV ratio = 1.91). Robust and consistent crosslinking with pacSph (+UV/−UV ratio = 1.64), pacCer (+UV/−UV = 1.67), and pacPC (+UV/−UV = 1.63) were observed. The crosslinking efficiency for cholesterol and sphingosine analogs was higher for the NTD, whereas crosslinking with ceramide and PC analogs seemed stronger with NPC2.
Lipids from stock vials were dissolved in chloroform and mixed at the desired molar ratio. For in vitro crosslinking, most liposomes consisted of 88.5 mol% DOPC as carrier lipid, 10 mol% DOPS, and 1.5 mol% respective pac-lipid. The pac-lipids were incorporated into liposomes at low concentrations (1.5 mol%) to ensure homogenous distribution and avoid micelle formation. The solvent was evaporated in a rotary evaporator (Hei-VAP Core, Heidolph) for 30 min at 42°C at 150 rpm to create a thin lipid film. Lipid films were hydrated with filtered and degassed PBS (137 mM NaCl, 2.7 mM KCl, 10 mM Na2HPO4, 1.8 mM KH2PO4, pH 7.4). Solutions of hydrated lipids (with a total lipid concentration of 2 mM) were subjected to five freeze–thaw cycles in liquid nitrogen and warm water (42°C) to facilitate breakup of large structures and support formation of smaller multilamellar vesicles. Lipid solutions were stored at −20°C. Before use, liposomes were extruded by passing 20x through a 100-nm pore size polycarbonate filter (Nuclepore; Whatman) using a hand extruder (Avanti Polar Lipids). Extruded liposomes were stored at 4°C, protected from light, and used within 1–2 d.
Extruded liposomes were diluted in PBS until a final lipid concentration of 60 μM, including 1 μM pac-lipid. Purified proteins were added until a final concentration of 1.5 μM in a reaction volume of 100 μl. Protein–liposome mixtures were incubated in 0.5-ml Eppendorf tubes for 30 min at 37°C at 400 rpm (Comfort thermomixer, Eppendorf), then crosslinked (or not) by exposure to 365-nm UV light for 15 min at 4°C using a 100-W mercury lamp (Blak-Ray B-100AP). After crosslinking, the click reaction was performed by adding 0.7 μl of freshly prepared click mix into the sample tubes. The final concentrations of click reagents in sample tubes were 80 μM CuSO4 (Merck), 3 μM TBTA (Merck), 3 μM AF647-picolyl azide (Jena Bioscience), and 80 μM ascorbic acid (Merck). Fresh stock of ascorbic acid solution in water was prepared every time and added to the click mix immediately before starting the click reaction. Click reactions were allowed to proceed for 2 h at 37°C at 400 rpm with the thermomixer. Then, samples were concentrated in a vacuum evaporator for 30 min set to 30°C and supplemented with 4x Lämmli buffer (250 mM Tris, pH 6.8, 9.2% SDS, 40% glycerol, 0.2% bromophenol blue, 100 mM DTT). Samples were boiled for 5 min at 95°C, and clicked protein–lipid complexes were resolved by SDS–PAGE. After extensive destaining in a destain solution (65% water, 25% isopropanol, and 10% acetic acid), the AF647 (a structural analog of Alexa Fluor 647) and Coomassie images were acquired using the LI-COR Odyssey imaging system. Data were evaluated by subtracting background fluorescence, followed by comparing the AF647 signal between crosslinked and non-crosslinked samples, normalized to protein loading based on Coomassie staining. The resulting values are described as +UV/−UV ratios. Statistics were calculated with the Mann–Whitney U test.

[2] = biological target: T2, NTD of NCR1 (Saccharomyces cerevisiae, UniProt Q12200); test: Competitive binding assays of edelfosine and NBD-Sph to the NTD; conditions: for Kd: 1 μM NBD-Sph, read-out: apparent KD of NBD-Sph to the NTD
T2 construct: residues 1–249, UniProt: Q12200; thrombin cleavage site (C); deca-histidine tag (C, cleaved yes); made in house; host or cells: Saccharomyces cerevisiae strain DSY-5
T2 sequence (Q12200 20-249): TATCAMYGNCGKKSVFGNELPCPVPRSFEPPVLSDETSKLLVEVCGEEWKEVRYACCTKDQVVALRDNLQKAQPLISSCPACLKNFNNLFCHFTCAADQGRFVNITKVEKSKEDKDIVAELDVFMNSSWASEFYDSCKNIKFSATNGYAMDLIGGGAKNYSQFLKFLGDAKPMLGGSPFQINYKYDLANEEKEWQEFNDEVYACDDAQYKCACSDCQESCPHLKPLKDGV
Excerpt: Edelfosine is a synthetic lysophospholipid with cytotoxic antifungal effects. […] To investigate this, two competitive binding assays with edelfosine and NBD-Sph were designed (Fig 4). For the first assay, the NTD was saturated by NBD-Sph and the addition of edelfosine led to the exchange of the NTD-bound substrate, causing a drop in NBD-Sph fluorescence by about 50% (Fig 4A). […] To further evaluate the capability of NBD-Sph to participate in micelle formation, each emission spectrum was normalized with varying concentrations of edelfosine (Fig 4B). […] The shift in the wavelength of the emission peaks indicates a change in the environment of the fluorophore ([48], [49], [50]), likely indicating the transition of NBD-Sph from being free in solution to being incorporated into mixed micelles with edelfosine. Initially, emission peaks at ∼530 nm are observed, assigned to be NTD and NBD-Sph complexes (Fig 4C). […] Similarly, for binding of substrates at higher concentrations than their CMC, this binding assay is rather complex because of edelfosine exceeding its CMC. […] Because of these restrictions, the inhibitory constant for edelfosine is referred to as apparent, rather than a real, inhibitor constant (KI).
Based on the above observations, fixed amounts of edelfosine were added to NBD-Sph before titrating with the NTD in the second assay (Fig 4D).
For measuring the ability of edelfosine to outcompete NBD-Sph, 1 μM NBD-Sph and 1 μM NTD were mixed to form the interaction complex before adding increasing amounts of edelfosine. As a control, edelfosine was titrated into a cuvette containing exclusively NBD-Sph in buffer. To measure the competitive binding between NBD-Sph and edelfosine, 1 μM NBD-lipid in Tris buffer was mixed with either 0.1, 0.5, or 0.7 μM edelfosine in the sample cuvette before titration with the NTD.
Before determination of dissociation constants, the measurements were normalized. The protein–lipid binding measurements were normalized to the highest intensity in each dataset. For the competition assay, the data were normalized to the lowest intensity in the dataset to be able to fit all data to Equation (1), the full model for one-site binding for the saturated fraction, f ([27]):(1) RL/Rt=Rt+KD+Lt-Rt+KD+Lt^2-4⋅Rt⋅Lt/2⋅Rt=f
To determine the dissociation constant of edelfosine (referred to as KI) in the competition assay, it can be assumed that the binding is simple and that all added ligand is bound. In this case, the IC50 can be used to calculate a KI using Equation (2) on normalized data:(2) KI=IC50⋅KD/KD+L
The KD is the dissociation constant of the ligand, [L] is the concentration, and IC50 is the concentration of the inhibitor, where half of the ligand is inhibited.

[3] = CMC measurement of NBD-lipids by fluorescence; type: physicochemical; conditions: MES buffer pH 5.5, fluorescence 460/530 nm
Experimental: The CMC of NBD-Sph was measured by adding increasing concentrations of NBD-Sph to a cuvette containing MES buffer. Between measurements, the solution was mixed and incubated for 10 min. The highest measured concentration of NBD-Sph was 30 μM.
(§1) To determine the CMC, the sigmoid curve was fitted and adjusted to the normalized data: f(x)=l/1+e^−k⋅(x−x0)+b (3)
(§2) Here, l is the scaling of the y-axis, x0 represents the CMC, k determines the sharpness of the fitted curve, and b is the starting position on the y-axis.

[4] = biological target: T1, NPC2; test: Fluorescence binding assay of NBD-lipids titrated with NPC2
Experimental: (§3) To investigate substrate candidates for the NTD of NCR1 and NPC2, biochemical assays were conducted with purified protein and fluorescent lipid analogs. The purified, delipidated NTD was titrated into NBD-tagged phospholipids and sphingolipids, in which the fluorophore is attached to the hydrophobic tail of the lipid molecules. An increase in signal is based on an enhanced molecular brightness of the NBD-moiety upon binding in a more hydrophobic environment ([28]). This increase in fluorescence correlates with the concentration of the NTD (Fig 3A), which can be used to infer the affinity of the NTD to a given NBD-lipid (Fig 3B–G). […] The measured increase in fluorescence of each NBD-lipid upon titrating the protein was used to determine an apparent dissociation constant (KD) according to a one-site binding model (Equation (1)).
(§4) Fluorescence binding assays were conducted using NBD-PC, NBD-PS, NBD-Cer, and NBD-Sph (Avanti Polar Lipids), and NBD-PI (Prof. Bütikofer), dissolved in ethanol. […] NBD-lipids were excited at 460 nm, and the emission spectra were recorded within a range of 490–600 nm. […] Emission spectra for NBD-lipids were measured as a control and subtracted from the sample emission spectra. The control cuvette was measured every time the sample was measured to correct the data for bleaching of NBD-Sph. […]

[5] = biological target: T2, NTD of NCR1; test: Fluorescence binding assay of NBD-lipids titrated with the NTD
Experimental: as §3, §4

[6] = CMC measurement of edelfosine with Sudan Black B absorbance; type: physicochemical; conditions: MES buffer pH 5.5, Sudan Black B absorbance 600 nm, n = 1
Experimental: As edelfosine is not fluorescent, a different approach was used to measure its CMC. The hydrophobic dye, Sudan Black B, was used to stain micelles. The absorption of solutions consisting of MES buffer, Sudan Black, and increasing concentrations of edelfosine was measured using a spectrophotometer (Hitachi U-2010).
as §1, §2

[7] = biological target: T2, NTD of NCR1; test: In vitro liposome crosslinking assay of pac-lipids with the NTD; type: binding; conditions: liposomes with 1.5 mol% pac-lipid (1 μM), 1.5 μM NTD, average ratio
Excerpt: In a parallel approach, the substrate scope of the NTD and NPC2 was probed with photo-activatable and clickable (pac) lipids. Pac-lipids contain small chemical modifications for click chemistry reactions, with fluorophores such as AF647 (a structural analog of Alexa Fluor 647), and for UV-activated photo-crosslinking, respectively ([45]). In contrast to NBD-tagged lipids delivered in solution, pac-lipids such as pac-cholesterol (pacChol), pac-phosphatidylcholine (pacPC), pac-sphingosine (pacSph), and pac-ceramide (pacCer) were reconstituted in liposomal membranes (Fig 5A and B). As expected, the delipidated NTD crosslinks with pacChol (average +UV/−UV ratio = 2.11). Crosslinking of the NTD with pacSph (+UV/−UV = 1.73) and, to a lesser extent, with pacCer and pacPC (+UV/−UV = 1.40 and 1.12), respectively, was also detected (Fig 5C and D).
Lipids from stock vials were dissolved in chloroform and mixed at the desired molar ratio. […]
Extruded liposomes were diluted in PBS until a final lipid concentration of 60 μM, including 1 μM pac-lipid. […] Data were evaluated by subtracting background fluorescence, followed by comparing the AF647 signal between crosslinked and non-crosslinked samples, normalized to protein loading based on Coomassie staining. […] Statistics were calculated with the Mann–Whitney U test.

[8] = set-up: method as in PMID 19348755; conditions: aggregated form; cited from earlier work
[9] = 20 mol% ergosterol: 1 μM pac-lipid and 13 μM ergosterol

Compound: CC(C)[C@@H](C)/C=C/[C@@H](C)[C@H]1CC[C@H]2C3=CC=C4C[C@@H](O)CC[C@]4(C)[C@H]3CC[C@]12C [Ergosterol, ergosterol]
effect of ergosterol on NPC2 crosslinking with pacChol and pacPC [1, 9]: does not visibly influence
effect of ergosterol on NPC2 crosslinking with pacSph and pacCer [1, 9]: trend toward increased crosslinking
effect of ergosterol on NPC2 crosslinking with pacSph and pacCer ([1]; 20 mol% ergosterol: 1 μM pac-lipid and 13 μM ergosterol, listed as ergosterol): increased crosslinking

Compound: C#CCCCCOC(=O)CCC(C)C1CCC2C3CC4(N=N4)C4CC(O)CCC4(C)C3CCC12C (centres unmarked) [pacChol]
+UV/−UV ratio (crosslinking with NPC2) ([1]; liposomes with 1.5 mol% pac-lipid (1 μM), 1.5 μM NPC2): 1.91
+UV/−UV ratio (crosslinking with NTD) [7]: 2.11

Compound: CCCCCCCCCCCCC/C=C/[C@@H](O)[C@@H](N)CO [sphingosine]
pKa [8]: 6.61

Continued, in another order:

Kd ([2]; 0.0 μM edelfosine, pH 7.5): 120 nM and ~120 nM
Kd ([2]; 0.1 μM edelfosine, pH 7.5): 120 ± 10 nM
Kd ([2]; 0.5 μM edelfosine, pH 7.5): 160 ± 60 nM
Kd ([2]; 0.7 μM edelfosine, pH 7.5): 210 nM and ~210 nM
critical micelle concentration (CMC) [3]: ~13 µM
Kd ([4]; pH 5.5, 1 μM NBD-lipid, values marked ° are apparent KD): ~580 nM and 580 nM
Kd ([4]; pH 7.5, 1 μM NBD-lipid): ~530 nM and 530 nM
Kd ([5]; pH 5.5, 1 μM NBD-lipid, values for NBD-PC, NBD-PS, NBD-Cer (marked °) are apparent KD, above CMC): ~250 nM and 250 nM
Kd ([5]; pH 7.5, 1 μM NBD-lipid): ~120 nM and 120 nM
Compound: NC(CO)C(O)C=CCCCCCCCCCCCCCNc1ccc([N+](=O)[O-])c2nonc12 (centres unmarked) [NBD-Sph]

IC50 ([2]; 1 μM NBD-Sph mixed with 1 μM NTD, 0 to 4 μM edelfosine, pH 7.5, read-out: IC50 of edelfosine against NBD-Sph binding to the NTD): 480 nM and 500 nM
drop in NBD-Sph fluorescence on addition of edelfosine ([2]; NTD saturated by NBD-Sph, pH 7.5): about 50%
Ki ([2]; calculated from IC50 with Equation (2), apparent, edelfosine exceeds its CMC, read-out: apparent inhibitor constant (KI)): ~50 nM
critical micelle concentration (CMC) [6]: 0.7 µM and 0.715 µM
Compound: CCCCCCCCCCCCCCCCCCOCC(COP(=O)([O-])OCC[N+](C)(C)C)OC (centres unmarked) [edelfosine]
effect of edelfosine on NPC2 crosslinking with pac-lipids ([1]; fivefold excess: 1 μM pac-lipid and 5 μM edelfosine in liposomes): no noticeable inhibition of crosslinking; also recorded: no noticeable effect
